Test results as given in patent US10881679B2, “Application of a phillyrin/phillygeninin composition in preparing a medicine or health care product for alleviating or/and treating viral diseases, and medicine or health care product for treating viral diseases” (priority 2014, dated 2021).
Marks after values point to notes of the source that are not given here.

Tests used:
[1] = system: rat paw swelling induced by carrageenin; experiment: Rat paw swelling induced by carrageenin; format: in vivo, Wistar rats; details: 10.0 mg/kg
Method: Each group has 10 rats. Rats in each group were all administered by […] through the sublingual vein. Normal volume of the right hind paw of each rat in each group was measured in capillary magnification measurement method. In order to avoid errors, the measurement should be carried out in a fixed position and operated by the same person before and after administration. A mean of the two measurement values was taken as the normal volume of the right hind paw of a rat before administration. […] The difference between the groups was compared by inter-group t test processing through the difference percentage (swelling ratio) of the paw volume before and after the induced rat inflammation. [formula] Results

[2] = system: parainfluenza virus; format: in vivo, Kunming mice; details: 13.0 mg/kg/d i.g. 5 days
[3] = system: influenza virus; format: in vivo, Kunming mice; details: 13.0 mg/kg/d i.g. 5 days
[4] = system: sweat secretion of rat paws; experiment: Sweat secretion of rat paws (coloring method); format: in vivo, Wistar rats; details: dose not given
From the text: The test is based on a mechanism that distribution of sweat glands is present in footpads of rat paws, the amount of sweat secretion and variation thereof can be observed by using a mechanism that a purple color can be produced by contacting iodine and starch when encountered with sweat.
500 Wistar rats with equal male and female number were used, weighing of 120˜150 g. These rats were randomly divided into 50 groups by weight and gender, i.e., namely 5 groups for the control groups (0.5% methyl cellulose), 5 groups for phillyrin groups, 5 groups for phillygeninin groups, 5 groups for the low, medium and high dose groups (2.5, 5, 10 mg/kg, respectively) of phillyrin/phillygeninin compositions A and B respactively, and 5 groups for the positive drug pilocarpine groups (35 mg/kg). Each group has 10 rats, 10 groups of rates are used for each test, which has 5 time periods (1, 5, 10, 15 and 20 min). The rats were placed into a self-made rat fixation bag, and both hind limbs of the rats were exposed. Dirt on the right paws was gently cleaned away using cotton swabs containing anhydrous alcohol. Pilocarpine solution was administered by subcutaneous injection, the remaining groups were subjected to intragastric administration. At 1 h (30 min for the pilocarpine group) after administration, pre-existing sweat and sweat generated due to struggle on the right paw of each rat in each group was gently wiped away with dry cotton swabs, then the paws were coated with solution A (dissolving 2 g iodine in 100 ml anhydrous alcohol) of Hetian-gaoyuanshi's reagent. After complete dryness, the paws were thinly coated with solution B (uniform mixture of 50 g soluble starch and 100 ml castor oil) of Hetian-gaoyuanshi's reagent. The color and number of dark purple coloring spots (i.e. sweat spots) were carefully observed at 1, 5, 10, 15 and 20 min after the coating of the solution B respectively with magnifying glass. After the test was completed, statistical treatment was performed according to the rank sum test with two-sample comparison, thereby comparing the differences among the various groups.

[5] = system: Coxsackie virus B3 (CVB3); experiment: Impact on virus-induced cytopathic effect in Vero cells (MTT): CVB3; format: cell-based; details: CVB3 100TCID50, Vero, 72 h; drug g/L as Table 1-2
[6] = system: parainfluenza virus; experiment: Impact on virus-induced cytopathic effect in Vero cells (MTT): parainfluenza virus; format: cell-based; details: parainfluenza virus 100TCID50, Vero, 72 h; drug g/L as Table 1-2
[7] = system: Herpes zoster simplex viruses type I (HSV-I); experiment: Impact on virus-induced cytopathic effect in Vero cells (MTT): HSV-I; format: cell-based; details: HSV-I 100TCID50, Vero, 72 h; drug g/L as Table 1-2
[8] = system: rabbit fever induced by typhoid and paratyphoid vaccine; experiment: Rabbit fever induced by typhoid and paratyphoid vaccine; format: in vivo, Japanese big-ear white rabbits; details: 5.2 mg/kg i.g.
Method: Male Japanese big-ear white rabbits with a weight 1.5˜2.0 kg were used. Before the test, WSC-411P portable digital thermometer was used to measure the normal rectal temperature twice (with certain interval for each time), and the average value was taken as the normal body temperature of rabbits. […] Each group has 6 rabbits, and the test was repeated 3 times for each group. Rabbits were fixed into a fixator. The blank control group was intravenously injected with normal saline of 1 ml/kg via the ear margin; The model control group and each drug group were intravenously injected with typhoid and paratyphoid vaccines of 0.8 ml/kg via the ear margin. After the body temperatures of the rabbits increased by 1° C. or more (requiring about 1˜1.5 h, and this test was limited to 1 h), the blank control group and the model group were administered intragastrically with 0.5% carboxymethycellulose of 1 ml/kg, and the drug groups were administered intragastrically with phillyrin/phillygeninin compositions and paracetamol respectively. The rectal temperature was measured after administration for 30, 60, 90, 120, 180 and 240 min to observe the changes in the body temperature, and difference between the groups was compared by inter-group t test processing through antipyretic percentage.

[9] = system: Coxsackievirus A16 (CoxA16); experiment: Impact on virus-induced cytopathic effect in Vero cells (MTT): CoxA16; format: cell-based; details: CoxA16 100TCID50, Vero, 72 h; drug g/L as Table 1-2
[10] = system: adenovirus (ADV); experiment: Impact on virus-induced cytopathic effect in Vero cells (MTT): ADV; format: cell-based; details: ADV 100TCID50, Vero, 72 h; drug g/L as Table 1-2
[11] = 15 min after inflammation induction
[12] = 30 min after inflammation induction
[13] = 60 min after inflammation induction
[14] = 120 min after inflammation induction
[15] = 180 min after inflammation induction
[16] = 240 min after inflammation induction
[17] = 300 min after inflammation induction
[18] = 360 min after inflammation induction
[19] = 10 min after coating solution B
[20] = 15 min after coating solution B
[21] = 20 min after coating solution B

`COc1cc([C@H]2OC[C@H]3[C@@H]2CO[C@H]3c2ccc(OC)c(OC)c2)ccc1O` [Phillygeninin, phillygeninin] was tested, and the “Swelling percentage (%)” value [1, 11] was 14.9 ± 6.13%, the “Swelling percentage (%)” value [1, 12] was 21.9 ± 9.72% and the “Swelling percentage (%)” value [1, 13] was 27.1 ± 13.5%. For the same compound, the “Swelling percentage (%)” value [1, 14] was 30.7 ± 10.2 %, the “Swelling percentage (%)” value [1, 15] was 33.8 ± 12.1 % and the “Swelling percentage (%)” value [1, 16] was 31.0 ± 11.3 %. For the same compound, the “Swelling percentage (%)” value [1, 17] was 35.8 ± 13.5 %, the “Swelling percentage (%)” value [1, 18] was 36.4 ± 10.2% and the “Hemagglutination titer (InX)” value [2] was 23.79. For the same compound, the “Inhibition rate (%) of hemagglutination titer” value [2] was 28.15%, the Lung index [3] was 1.302 ± 0.046 and the “Lung index inhibition rate” value [3] was 12.51. For the same compound, the “Animal number of sweat spots of level +” value ([4]; 1 min after coating solution B) was 1 rats, the “Animal number of sweat spots of level ++” value ([4]; 1 min after coating solution B) was 3 rats and the “Animal number of sweat spots of level +++” value ([4]; 1 min after coating solution B) was 3 rats. For the same compound, the “Animal number of sweat spots of level ++++” value (“Animal number … of level ++++” for short) ([4]; 1 min after coating solution B) was 3 rats, the “Animal number of sweat spots of level −” value ([4]; 1 min after coating solution B) was 0 rats and the “Animal number of sweat spots of level +” value ([4]; 5 min after coating solution B) was 1 rats. The “Animal number of sweat spots of level ++” value ([4]; 5 min after coating solution B) was 3 rats, the “Animal number of sweat spots of level +++” value ([4]; 5 min after coating solution B) was 2 rats and the “Animal number … of level ++++” value ([4]; 5 min after coating solution B) was 4 rats. For the same compound, the “Animal number of sweat spots of level −” value ([4]; 5 min after coating solution B) was 0 rats, the “Animal number of sweat spots of level +” value [4, 19] was 1 rats and the “Animal number of sweat spots of level ++” value [4, 19] was 3 rats. For the same compound, the “Animal number of sweat spots of level +++” value [4, 19] was 1 rats, the “Animal number … of level ++++” value [4, 19] was 5 rats and the “Animal number of sweat spots of level −” value [4, 19] was 0 rats. For the same compound, the “Animal number of sweat spots of level +” value [4, 20] was 1 rats, the “Animal number of sweat spots of level ++” value [4, 20] was 1 rats and the “Animal number of sweat spots of level +++” value [4, 20] was 3 rats. The “Animal number … of level ++++” value [4, 20] was 5 rats, the “Animal number of sweat spots of level −” value [4, 20] was 0 rats and the “Animal number of sweat spots of level +” value [4, 21] was 0 rats. The “Animal number of sweat spots of level ++” value [4, 21] was 1 rats, the “Animal number of sweat spots of level +++” value [4, 21] was 4 rats and the “Animal number … of level ++++” value [4, 21] was 5 rats. For the same compound, the “Animal number of sweat spots of level −” value [4, 21] was 0 rats, the “antiviral effective rate (ER %)” value [5] was 50.89% and the “antiviral effective rate (ER %)” value [6] was 80.72** %. The “antiviral effective rate (ER %)” value [7] was 84.30** %, the Body temperature ([8]; 30 min after administration) was 41.06 ± 0.26 °C and the “antipyretic percentage (%)” value ([8]; 30 min after administration) was −0.10 ± 0.11%. For the same compound, the Body temperature ([8]; 60 min after administration) was 40.86 ± 0.21 °C, the “antipyretic percentage (%)” value ([8]; 60 min after administration) was −0.49 ± 0.10% and the Body temperature ([8]; 90 min after administration) was 40.74 ± 0.22 °C. For the same compound, the “antipyretic percentage (%)” value ([8]; 90 min after administration) was −0.77 ± 0.22%, the Body temperature ([8]; 120 min after administration) was 40.65 ± 0.27 °C and the “antipyretic percentage (%)” value ([8]; 120 min after administration) was −1.00 ± 0.18 %. The Body temperature ([8]; 180 min after administration) was 40.49 ± 0.23 °C, the “antipyretic percentage (%)” value ([8]; 180 min after administration) was −1.39 ± 0.17 % and the Body temperature ([8]; 240 min after administration) was 40.30 ± 0.25 °C. The “antipyretic percentage (%)” value ([8]; 240 min after administration) was −1.85 ± 0.15 %, the “antiviral effective rate (ER %)” value [9] was 50.04% and the “antiviral effective rate (ER %)” value [10] was 50.61%.
For `COc1ccc([C@H]2OCC3C2CO[C@H]3c2ccc(O[C@@H]3OC(CO)[C@@H](O)[C@H](O)C3O)c(OC)c2)cc1OC` (stereo partly drawn) [phillyrin], the “Swelling percentage (%)” value [1, 11] was 12.9 ± 8.41%, the “Swelling percentage (%)” value [1, 12] was 19.9 ± 9.55% and the “Swelling percentage (%)” value [1, 13] was 21.8 ± 11.8 %. For the same compound, the “Swelling percentage (%)” value [1, 14] was 28.9 ± 14.0 %, the “Swelling percentage (%)” value [1, 15] was 30.8 ± 15.4 % and the “Swelling percentage (%)” value [1, 16] was 29.9 ± 11.1 %. The “Swelling percentage (%)” value [1, 17] was 33.5 ± 10.0 %, the “Swelling percentage (%)” value [1, 18] was 32.2 ± 11.9 % and the “Hemagglutination titer (InX)” value [2] was 23.17. For the same compound, the “Inhibition rate (%) of hemagglutination titer” value [2] was 30.01%, the Lung index [3] was 1.280 ± 0.040 and the “Lung index inhibition rate” value [3] was 14.00. The “Animal number of sweat spots of level +” value ([4]; 1 min after coating solution B) was 2 rats, the “Animal number of sweat spots of level ++” value ([4]; 1 min after coating solution B) was 2 rats and the “Animal number of sweat spots of level +++” value ([4]; 1 min after coating solution B) was 2 rats. For the same compound, the “Animal number … of level ++++” value ([4]; 1 min after coating solution B) was 4 rats, the “Animal number of sweat spots of level −” value ([4]; 1 min after coating solution B) was 0 rats and the “Animal number of sweat spots of level +” value ([4]; 5 min after coating solution B) was 1 rats. For the same compound, the “Animal number of sweat spots of level ++” value ([4]; 5 min after coating solution B) was 2 rats, the “Animal number of sweat spots of level +++” value ([4]; 5 min after coating solution B) was 2 rats and the “Animal number … of level ++++” value ([4]; 5 min after coating solution B) was 5 rats. For the same compound, the “Animal number of sweat spots of level −” value ([4]; 5 min after coating solution B) was 0 rats, the “Animal number of sweat spots of level +” value [4, 19] was 1 rats and the “Animal number of sweat spots of level ++” value [4, 19] was 1 rats. The “Animal number of sweat spots of level +++” value [4, 19] was 3 rats, the “Animal number … of level ++++” value [4, 19] was 5 rats and the “Animal number of sweat spots of level −” value [4, 19] was 0 rats. The “Animal number of sweat spots of level +” value [4, 20] was 1 rats, the “Animal number of sweat spots of level ++” value [4, 20] was 2 rats and the “Animal number of sweat spots of level +++” value [4, 20] was 4 rats. The “Animal number … of level ++++” value [4, 20] was 5 rats, the “Animal number of sweat spots of level −” value [4, 20] was 0 rats and the “Animal number of sweat spots of level +” value [4, 21] was 0 rats. For the same compound, the “Animal number of sweat spots of level ++” value [4, 21] was 4 rats, the “Animal number of sweat spots of level +++” value [4, 21] was 0 rats and the “Animal number … of level ++++” value [4, 21] was 6 rats. The “Animal number of sweat spots of level −” value [4, 21] was 0 rats, the “antiviral effective rate (ER %)” value [5] was 75.27** % and the “antiviral effective rate (ER %)” value [6] was 84.96** %. The “antiviral effective rate (ER %)” value [7] was 85.00** %, the Body temperature ([8]; 30 min after administration) was 40.83 ± 0.26 °C and the “antipyretic percentage (%)” value ([8]; 30 min after administration) was −0.37 ± 0.15%. The Body temperature ([8]; 60 min after administration) was 40.58 ± 0.21 °C, the “antipyretic percentage (%)” value ([8]; 60 min after administration) was −0.61 ± 0.12% and the Body temperature ([8]; 90 min after administration) was 40.43 ± 0.22 °C. The “antipyretic percentage (%)” value ([8]; 90 min after administration) was −0.97 ± 0.27%, the Body temperature ([8]; 120 min after administration) was 40.37 ± 0.27 °C and the “antipyretic percentage (%)” value ([8]; 120 min after administration) was −1.13 ± 0.14 %. The Body temperature ([8]; 180 min after administration) was 40.16 ± 0.23 °C, the “antipyretic percentage (%)” value ([8]; 180 min after administration) was −1.65 ± 0.12 % and the Body temperature ([8]; 240 min after administration) was 39.92 ± 0.25 °C. The “antipyretic percentage (%)” value ([8]; 240 min after administration) was −2.22 ± 0.11 %, the “antiviral effective rate (ER %)” value [9] was 75.08** % and the “antiviral effective rate (ER %)” value [10] was 75.14** %.
